We go through 22 compounds from patent US12419900B2, “Induction of synthetic lethality with epigenetic therapy” (The Johns Hopkins University, priority 2017, dated 2025).

Structures are written as SMILES. Like-named read-outs stand apart in the source and are kept apart here.

One test relates to PC-3 cancer cells. As to the kind of experiment: Chemical library screen (JHDL), second stage, dose response matrix with decitabine. Type of test: cell-based. An excerpt: Cells were exposed to each dose of decitabine for four consecutive days prior to addition of each dose of the identified compounds for three consecutive days. […] FIG. 30 is a bar graph illustrating the Bliss Independence score values for the cells of the compounds identified.

For test [1], the system named is DU145 prostate cancer cells. As to the kind of experiment: Alamar blue cell viability and growth, alisertib x decitabine dose matrix. Format: cell-based. The conditions noted are these: Aurora kinase inhibitor + decitabine. The procedure: DU145 prostate cancer cells and A549 lung cancer cells were treated with varying concentrations (0 nM, 10 nM, 50 nM, and 100 nM) of alisertib in addition to varying concentrations of decitabine (0 nM, 50 nM, 100 nM, and 250 nM). Representative data are shown in FIGS. 2A and 2B, as well as the Tables below. […] In each panel, a dose response of each drug alone and in combination was used in Alamar blue cell viability assays. […] Formal synergy analyses were performed using the Bliss independence score (where values greater than zero indicate greater than additive effect). […] The graph of FIG. 2A is a growth curve of the DU145 prostate cancer cells for the agents alone (decitabine and alisertib separately), a vehicle control, and the agents in combination (decitabine and alisertib together). […] Likewise, the graph of FIG. 2B is a growth curve of the A549 lung cancer cells for the agents alone (decitabine and alisertib separately), a vehicle control, and the agents in combination (decitabine and alisertib together). […] The synergy analysis of the combination of decitabine and alisertib was evaluated in a series of 18 cancer cell lines (9 prostate, 1 ovarian, 1 lung, 2 colon, 2 central nervous system, and 3 breast cancer cell lines) and 2 non-cancer cell models.
(Resazurin is reduced to fluorescent resorufin, in cell work by metabolically active cells.)

[2] abbreviates: PC-3, decitabine 0-10 μM four days, then compound 0-10 μM three days.

On to `COc1cc2ncn(-c3cc(OCc4ccccc4C(F)(F)F)c(C(N)=O)s3)c2cc1OC` [GW843682], for which the “growth inhibition when combined with decitabine (Bliss independence score sum across all dose combinations greater than zero)” value (from here on “growth inhibition when combined”) in the test on PC-3 cancer cells (setting [2]) is reported as “synergistic growth inhibition”.
For the compound `CC(=O)O[C@@]12CO[C@@H]1C[C@H](O)[C@@]1(C)C(=O)[C@H](O)C3=C(C)[C@@H](OC(=O)[C@H](O)[C@@H](NC(=O)OC(C)(C)C)c4ccccc4)C[C@@](O)([C@@H](OC(=O)c4ccccc4)[C@H]21)C3(C)C` [docetaxel], in the test on PC-3 cancer cells (setting [2]), the “growth inhibition when combined” value was “synergistic growth inhibition”.
Turning to `COc1ccc(C[C@H]2NC[C@H](O)[C@H]2OC(C)=O)cc1` [anisomycin], in the test on PC-3 cancer cells (setting [2]), the “growth inhibition when combined” value was “synergistic growth inhibition”.
As for `CCCCCCCCCCCCCCCCn1cc[n+](Cc2ccccc2)c1C.[I-]` [NH125], the “growth inhibition when combined” value in the test with PC-3 cancer cells is reported as “synergistic growth inhibition”.
Turning to `CC(C)[C@@H]1NC(=O)[C@H](C)OC(=O)[C@@H](C(C)C)NC(=O)[C@@H](C(C)C)OC(=O)[C@H](C(C)C)NC(=O)[C@H](C)OC(=O)[C@@H](C(C)C)NC(=O)[C@@H](C(C)C)OC(=O)[C@H](C(C)C)NC(=O)[C@H](C)OC(=O)[C@@H](C(C)C)NC(=O)[C@@H](C(C)C)OC1=O` [valinomycin], the “growth inhibition when combined” value in the test on PC-3 cancer cells (setting [2]) is listed as “synergistic growth inhibition”.
In the case of `Cc1csc(-c2nnc(Nc3ccc(Oc4ncccc4-c4ccnc(N)n4)cc3)c3ccccc23)c1` [AMG-900], in test [1], the “growth inhibition of DU-145 cells in combination with decitabine” value is recorded as “synergistic growth inhibition”.
`N.N.O=C([O-])C1(C(=O)[O-])CCC1.[Pt+2]` [carboplatin]: the “growth inhibition when combined” value in the test with PC-3 cancer cells (setting [2]) was “synergistic growth inhibition”.
Turning to `O=C(O)c1ccc(Nc2ncc3c(n2)-c2ccc(Cl)cc2C(c2c(F)cccc2F)=NC3)cc1` [MLN8054], in test [1], the “growth inhibition of DU-145 cells in combination with decitabine” value was “synergistic growth inhibition”.
On to `CC[C@@]1(O)C[C@H](O[C@H]2C[C@H](N(C)C)[C@H](O[C@H]3C[C@H](O)[C@H](O[C@H]4CCC(=O)[C@H](C)O4)[C@H](C)O3)[C@H](C)O2)c2c(cc3c(c2O)C(=O)c2c(O)cccc2C3=O)[C@H]1C(=O)OC` [aclarubicin], for which the “growth inhibition when combined” value in the test with PC-3 cancer cells is “synergistic growth inhibition”.
Consider `COc1c(C)c2c(c(O)c1C/C=C(\C)CCC(=O)O)C(=O)OC2` [mycophenolic acid], for which the “growth inhibition when combined” value in the test on PC-3 cancer cells (setting [2]) is “synergistic growth inhibition”.
Regarding `CC[C@@]1(O)C(=O)OCc2c1cc1n(c2=O)Cc2cc3c(CN(C)C)c(O)ccc3nc2-1` [topotecan], the “growth inhibition when combined” value in the test on PC-3 cancer cells (setting [2]) is on record as “synergistic growth inhibition”.
Regarding `Cc1ccc2c(=O)c3ccccc3n(CCCN)c2c1C.O=C(O)C(=O)O` [ER27319], the “growth inhibition when combined” value with PC-3 cancer cells (setting [2]) is reported as “synergistic growth inhibition”.
Consider `Nc1ccc(-c2cccc3c(=O)cc(N4CCOCC4)oc23)cc1` [PI828], for which, in the test with PC-3 cancer cells (setting [2]), the “growth inhibition when combined” value is listed as “synergistic growth inhibition”.
For the compound `CO[C@H]1C[C@H](O[C@H]2CC[C@]3(C)[C@H]4CC[C@]5(C)[C@@H](C6=CC(=O)OC6)CC[C@]5(O)[C@@H]4CC[C@]3(O)C2)O[C@H](C)[C@H]1O` [periplocymarin], the “growth inhibition when combined” value in the test with PC-3 cancer cells was “synergistic growth inhibition”.
For the compound `COc1cc2c(c(OC)c1OC)-c1ccc(OC)c(=O)cc1[C@@H](NC(C)=O)CC2` [colchicine], the “growth inhibition when combined” value in the test on PC-3 cancer cells was “synergistic growth inhibition”.
Regarding `Nc1ccn([C@@H]2O[C@H](CO)[C@@H](O)[C@@H]2O)c(=O)n1` [cytarabine], the “growth inhibition when combined” value in the test on PC-3 cancer cells (setting [2]) is given as “synergistic growth inhibition”.
For `Nc1ccn([C@@H]2O[C@H](CO)[C@@H](O)C2(F)F)c(=O)n1` [gemcitabine], the “growth inhibition when combined” value in the test with PC-3 cancer cells (setting [2]) was “synergistic growth inhibition”.
Still for that read-out and setting: for `O=C1NC(=O)c2c1c1c3ccccc3n3c1c1c2c2ccccc2n1C1CCC3O1` [SB218078] the value was “synergistic growth inhibition”; for `C[C@@H]1O[C@@H](O[C@H]2C[C@@H](O)[C@]3(CO)[C@H]4[C@H](O)C[C@]5(C)[C@@H](C6=CC(=O)OC6)CC[C@]5(O)[C@@H]4CC[C@]3(O)C2)[C@H](O)[C@H](O)[C@H]1O` [ouabain], “synergistic growth inhibition”.
Still for that read-out and setting: under `CCC1=C[C@@H]2CN(C1)Cc1c([nH]c3ccccc13)[C@@](C(=O)OC)(c1cc3c(cc1OC)N(C)[C@H]1[C@@](O)(C(=O)OC)[C@H](OC(C)=O)[C@]4(CC)C=CCN5CC[C@]31[C@@H]54)C2` [vinorelbine] stands “synergistic growth inhibition”.
On to `Cn1cc(C2=C(c3cn(CCCSC(=N)N)c4ccccc34)C(=O)NC2=O)c2ccccc21` [RO31-8220], for which, in the test on PC-3 cancer cells, the “growth inhibition when combined” value is recorded as “synergistic growth inhibition”.
With `C[C@]12CC[C@H]3[C@@H](CC[C@]4(O)C[C@@H](O)CC[C@]34C=O)[C@@]1(O)CC[C@@H]2C1=CC(=O)OC1` [strophanthidin], the “growth inhibition when combined” value with PC-3 cancer cells is “synergistic growth inhibition”.
